Test results: US12391679B2, “Benzamide-substituted bicyclic imidazo- and pyrazolo-fused -pyridine, -pyrimide, and -pyridazine compounds for treatment of inflammatory diseases” (ONCO3R Therapeutics BV, priority 2019, dated 2025)

Assays:
Assay type in all cases: biochemical
[1] = biological target: T1, SIK3 (Homo sapiens, UniProt Q9Y2K2); test: ADP-Glo kinase assay, SIK3
T1 construct: purchased SignalChem S12-11G-100
Outline: (§1)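 Each SIK isoform is incubated with substrate and ATP for 2 h at room temperature, after which residual ATP is depleted and the ADP formed is quantified by luminescence.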

[2] = biological target: T2, SIK2 (Homo sapiens, UniProt Q9H0K1); test: ADP-Glo kinase assay, SIK2
T2 construct: purchased ThermoFisher Scientific PV4792
Outline: as §1

[3] = biological target: T3, SIK1 (Homo sapiens, UniProt P57059); test: ADP-Glo kinase assay, SIK1
T3 construct: purchased Carna Biosciences 02-131
Outline: as §1

T3 sequence (P57059 whole entry): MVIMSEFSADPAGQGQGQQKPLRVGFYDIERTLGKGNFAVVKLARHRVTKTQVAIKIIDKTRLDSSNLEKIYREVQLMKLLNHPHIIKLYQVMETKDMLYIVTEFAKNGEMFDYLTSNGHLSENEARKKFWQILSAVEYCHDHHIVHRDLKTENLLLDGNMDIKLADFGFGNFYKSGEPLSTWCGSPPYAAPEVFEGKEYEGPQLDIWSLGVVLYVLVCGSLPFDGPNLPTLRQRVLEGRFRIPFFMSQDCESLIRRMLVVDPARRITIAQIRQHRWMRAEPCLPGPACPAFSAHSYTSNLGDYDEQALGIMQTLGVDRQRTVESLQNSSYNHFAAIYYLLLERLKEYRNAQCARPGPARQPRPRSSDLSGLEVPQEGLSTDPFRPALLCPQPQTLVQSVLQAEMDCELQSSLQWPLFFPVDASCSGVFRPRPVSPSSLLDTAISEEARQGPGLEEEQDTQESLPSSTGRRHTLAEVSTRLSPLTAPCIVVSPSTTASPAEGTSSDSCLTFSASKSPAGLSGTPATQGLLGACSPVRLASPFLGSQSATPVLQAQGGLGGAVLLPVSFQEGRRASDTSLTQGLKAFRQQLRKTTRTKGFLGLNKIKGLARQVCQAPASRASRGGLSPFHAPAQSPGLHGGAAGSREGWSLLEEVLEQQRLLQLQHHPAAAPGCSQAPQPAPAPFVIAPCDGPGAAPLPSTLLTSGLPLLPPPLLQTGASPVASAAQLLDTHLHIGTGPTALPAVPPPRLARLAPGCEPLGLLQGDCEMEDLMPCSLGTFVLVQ
T2 sequence (Q9H0K1 whole entry): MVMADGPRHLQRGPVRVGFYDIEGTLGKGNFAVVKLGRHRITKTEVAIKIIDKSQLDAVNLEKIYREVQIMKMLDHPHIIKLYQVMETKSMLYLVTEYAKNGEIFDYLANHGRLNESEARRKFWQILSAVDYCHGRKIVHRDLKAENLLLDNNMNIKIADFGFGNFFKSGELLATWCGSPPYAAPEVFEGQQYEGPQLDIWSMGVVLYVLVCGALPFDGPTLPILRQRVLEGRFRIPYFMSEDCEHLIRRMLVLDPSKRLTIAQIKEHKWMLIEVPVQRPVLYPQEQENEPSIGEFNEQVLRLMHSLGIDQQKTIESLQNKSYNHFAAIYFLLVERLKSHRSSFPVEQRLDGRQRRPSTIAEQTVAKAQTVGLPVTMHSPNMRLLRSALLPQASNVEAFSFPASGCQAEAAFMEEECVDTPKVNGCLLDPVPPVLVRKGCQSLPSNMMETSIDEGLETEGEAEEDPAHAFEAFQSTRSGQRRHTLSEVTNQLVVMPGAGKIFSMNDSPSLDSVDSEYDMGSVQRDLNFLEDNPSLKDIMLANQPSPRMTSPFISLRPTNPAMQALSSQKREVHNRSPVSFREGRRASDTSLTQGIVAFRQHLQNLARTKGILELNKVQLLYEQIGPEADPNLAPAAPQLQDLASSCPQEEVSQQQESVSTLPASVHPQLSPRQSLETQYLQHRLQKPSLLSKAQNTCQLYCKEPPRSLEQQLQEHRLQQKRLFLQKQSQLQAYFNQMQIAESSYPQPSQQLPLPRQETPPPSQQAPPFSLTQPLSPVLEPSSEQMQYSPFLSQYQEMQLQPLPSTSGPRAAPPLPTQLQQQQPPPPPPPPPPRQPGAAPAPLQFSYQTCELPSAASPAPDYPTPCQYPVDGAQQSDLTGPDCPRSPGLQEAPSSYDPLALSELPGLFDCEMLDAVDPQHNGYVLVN
T1 sequence (Q9Y2K2 59-365 limits assumed): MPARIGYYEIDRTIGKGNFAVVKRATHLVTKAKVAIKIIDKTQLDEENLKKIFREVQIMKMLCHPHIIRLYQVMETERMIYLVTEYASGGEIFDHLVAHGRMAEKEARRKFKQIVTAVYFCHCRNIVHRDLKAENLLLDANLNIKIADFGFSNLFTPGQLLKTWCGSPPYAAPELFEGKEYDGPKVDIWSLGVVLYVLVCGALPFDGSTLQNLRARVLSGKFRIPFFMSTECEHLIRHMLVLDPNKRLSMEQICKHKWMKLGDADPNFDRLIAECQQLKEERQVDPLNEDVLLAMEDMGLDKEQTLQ

Compound	IC50 [1]	IC50 [2]	IC50 [3]
COC(=O)C(F)(F)c1ccn2c(-c3cc(OC)c(C(=O)NC4CC4)c(OC(F)F)c3)cnc2c1 [Cpd 131, methyl 2-[3-[4-(cyclopropylcarbamoyl)-3-(difluoromethoxy)-5-methoxy-phenyl]imidazo[1,2-a]pyridin-7-yl]-2,2-difluoro-acetate]	0.01 to 10 nM	> 500 nM	> 500 nM
COc1cc(-c2cnc3cc(C(F)(F)C(=O)O)ccn23)cc(OC(F)F)c1C(=O)NC1CC1 [Cpd 132, 2-[3-[4-(cyclopropylcarbamoyl)-3-(difluoromethoxy)-5-methoxy-phenyl]imidazo[1,2-a]pyridin-7-yl]-2,2-difluoro-acetic acid]	0.01 to 10 nM	100 to 500 nM	100 to 500 nM
COc1cc(-c2cnc3cc(C(C)(O)C4CCOCC4)ccn23)cc(OC(F)F)c1C(=O)NC1CC1 (stereo not drawn) [Cpd 134, N-cyclopropyl-2-(difluoromethoxy)-4-[7-(1-hydroxy-1-tetrahydropyran-4-yl-ethyl)imidazo[1,2-a]pyridin-3-yl]-6-methoxy-benzamide]	10 to 100 nM	> 500 nM	> 500 nM
COc1cc(-c2cnc3cc(C4(C(=O)N5CCOCC5)CC4)ccn23)cc(OC(F)F)c1C(=O)NC1CC1 [Cpd 141, N-cyclopropyl-2-(difluoromethoxy)-6-methoxy-4-[7-[1-(morpholine-4-carbonyl)cyclopropyl]imidazo[1,2-a]pyridin-3-yl]benzamide]	100 to 500 nM	> 500 nM	> 500 nM
COCCNC(=O)C1(c2ccn3c(-c4cc(OC)c(C(=O)NC5CC5)c(OC(F)F)c4)cnc3c2)CC1 [Cpd 142, N-cyclopropyl-2-(difluoromethoxy)-6-methoxy-4-[7-[1-(2-methoxyethylcarbamoyl)cyclopropyl]imidazo[1,2-a]pyridin-3-yl]benzamide]	10 to 100 nM	> 500 nM	> 500 nM
CCN(CC)C(=O)C1(c2ccn3c(-c4cc(OC)c(C(=O)NC5CC5)c(OC(F)F)c4)cnc3c2)CC1 [Cpd 143, N-cyclopropyl-4-[7-[1-(diethylcarbamoyl)cyclopropyl]imidazo[1,2-a]pyridin-3-yl]-2-(difluoromethoxy)-6-methoxy-benzamide]	100 to 500 nM	> 500 nM	> 500 nM
COc1cc(-c2cnc3cc(C4(C(=O)N5CC(O)C5)CC4)ccn23)cc(OC(F)F)c1C(=O)NC1CC1 [Cpd 144, N-cyclopropyl-2-(difluoromethoxy)-4-[7-[1-(3-hydroxyazetidine-1-carbonyl)cyclopropyl]imidazo[1,2-a]pyridin-3-yl]-6-methoxy-benzamide]	10 to 100 nM	> 500 nM	> 500 nM
COc1cc(-c2cnc3cc(C4(CN5CCOCC5)CC4)ccn23)cc(OC(F)F)c1C(=O)NC1CC1 [Cpd 145, N-cyclopropyl-2-(difluoromethoxy)-6-methoxy-4-[7-[1-(morpholinomethyl)cyclopropyl]imidazo[1,2-a]pyridin-3-yl]benzamide]	100 to 500 nM	> 500 nM	> 500 nM
COc1cc(-c2cnc3cc(C4(C(=O)NCCO)CC4)ccn23)cc(OC(F)F)c1C(=O)NC1CC1 [Cpd 147, N-cyclopropyl-2-(difluoromethoxy)-4-[7-[1-(2-hydroxyethylcarbamoyl)cyclopropyl]imidazo[1,2-a]pyridin-3-yl]-6-methoxy-benzamide]	10 to 100 nM	> 500 nM	> 500 nM
CCN(CC)C(C)c1ccn2c(-c3cc(OC)c(C(=O)NC4CC4)c(OC(F)F)c3)cnc2c1 (stereo not drawn) [Cpd 148, N-cyclopropyl-4-[7-[1-(diethylamino)ethyl]imidazo[1,2-a]pyridin-3-yl]-2-(difluoromethoxy)-6-methoxy-benzamide]	10 to 100 nM	> 500 nM	> 500 nM
COc1cc(-c2cnc3cc(C(C)NC(C)C)ccn23)cc(OC(F)F)c1C(=O)NC1CC1 (stereo not drawn) [Cpd 149, N-cyclopropyl-2-(difluoromethoxy)-4-[7-[1-(isopropylamino)ethyl]imidazo[1,2-a]pyridin-3-yl]-6-methoxy-benzamide]	10 to 100 nM	> 500 nM	> 500 nM
COc1cc(-c2cnc3cc(C4(CNC(C)C)CC4)ccn23)cc(OC(F)F)c1C(=O)NC1CC1 [Cpd 151, N-cyclopropyl-2-(difluoromethoxy)-4-[7-[1-[(isopropylamino)methyl]cyclopropyl]imidazo[1,2-a]pyridin-3-yl]-6-methoxy-benzamide]	100 to 500 nM	> 500 nM	> 500 nM
COc1cc(-c2cnc3cc(C(C)N4CC5(COC5)C4)ccn23)cc(OC(F)F)c1C(=O)NC1CC1 (stereo not drawn) [Cpd 152, N-cyclopropyl-2-(difluoromethoxy)-6-methoxy-4-[7-[1-(2-oxa-6-azaspiro[3.3]heptan-6-yl)ethyl]imidazo[1,2-a]pyridin-3-yl]benzamide]	10 to 100 nM	> 500 nM	> 500 nM
COc1cc(-c2cnc3cc(C(C)N4CCCC4)ccn23)cc(OC(F)F)c1C(=O)NC1CC1 (stereo not drawn) [Cpd 153, N-cyclopropyl-2-(difluoromethoxy)-6-methoxy-4-[7-(1-pyrrolidin-1-ylethyl)imidazo[1,2-a]pyridin-3-yl]benzamide]	10 to 100 nM	> 500 nM	> 500 nM

The next lines start with the values.

IC50 [1]	IC50 [2]	IC50 [3]	Compound
10 to 100 nM	> 500 nM	> 500 nM	COc1cc(-c2cnc3cc(C(C)N(C)CCO)ccn23)cc(OC(F)F)c1C(=O)NC1CC1 (stereo not drawn) [Cpd 154, N-cyclopropyl-2-(difluoromethoxy)-4-[7-[1-[2-hydroxyethyl(methyl)amino]ethyl]imidazo[1,2-a]pyridin-3-yl]-6-methoxy-benzamide]
10 to 100 nM	> 500 nM	> 500 nM	COc1cc(-c2cnc3cc(C(C)N4CC(O)C4)ccn23)cc(OC(F)F)c1C(=O)NC1CC1 (stereo not drawn) [Cpd 155, N-cyclopropyl-2-(difluoromethoxy)-4-[7-[1-(3-hydroxyazetidin-1-yl)ethyl]imidazo[1,2-a]pyridin-3-yl]-6-methoxy-benzamide]
10 to 100 nM	> 500 nM	> 500 nM	COc1cc(-c2cnc3cc(C(C)N4CC(F)(F)C4)ccn23)cc(OC(F)F)c1C(=O)NC1CC1 (stereo not drawn) [Cpd 156, N-cyclopropyl-4-[7-[1-(3,3-difluoroazetidin-1-yl)ethyl]imidazo[1,2-a]pyridin-3-yl]-2-(difluoromethoxy)-6-methoxy-benzamide]
10 to 100 nM	> 500 nM	> 500 nM	COc1cc(-c2cnc3cc(C(C)N4CCO[C@H](CO)C4)ccn23)cc(OC(F)F)c1C(=O)NC1CC1 (stereo partly drawn) [Cpd 157, N-cyclopropyl-2-(difluoromethoxy)-4-[7-[1-[(2S)-2-(hydroxymethyl)morpholin-4-yl]ethyl]imidazo[1,2-a]pyridin-3-yl]-6-methoxy-benzamide]
10 to 100 nM	100 to 500 nM	100 to 500 nM	COc1cc(-c2cnc3cc(C4CN(C(=O)OC(C)(C)C)C4)c(F)cn23)cc(OC(F)F)c1C(=O)NC1CC1 [Cpd 158, tert-butyl 3-[3-[4-(cyclopropylcarbamoyl)-3-(difluoromethoxy)-5-methoxy-phenyl]-6-fluoro-imidazo[1,2-a]pyridin-7-yl]azetidine-1-carboxylate]
0.01 to 10 nM	10 to 100 nM	10 to 100 nM	COc1cc(-c2cnc3cc(C4CCC4)ccn23)cc(OC(F)F)c1C(=O)NC1CC1 [Cpd 159, 4-(7-cyclobutylimidazo[1,2-a]pyridin-3-yl)-N-cyclopropyl-2-(difluoromethoxy)-6-methoxy-benzamide]
10 to 100 nM	> 500 nM	> 500 nM	COc1cc(-c2cnc3cc(C(C)(C)CN4CCCC4)ccn23)cc(OC(F)F)c1C(=O)NC1CC1 [Cpd 161, N-cyclopropyl-2-(difluoromethoxy)-4-[7-(1,1-dimethyl-2-pyrrolidin-1-yl-ethyl)imidazo[1,2-a]pyridin-3-yl]-6-methoxy-benzamide]
10 to 100 nM	100 to 500 nM	100 to 500 nM	COc1cc(-c2cnc3cc(C4CCCN4C(=O)OC(C)(C)C)ccn23)cc(OC(F)F)c1C(=O)NC1CC1 (stereo not drawn) [Cpd 180, tert-butyl 2-[3-[4-(cyclopropylcarbamoyl)-3-(difluoromethoxy)-5-methoxy-phenyl]imidazo[1,2-a]pyridin-7-yl]pyrrolidine-1-carboxylate]
> 500 nM	> 500 nM	> 500 nM	COC(=O)C(C)(C#N)c1ccn2c(-c3cc(OC)c(C(=O)NC4CC4)c(OC(F)F)c3)cnc2c1 (stereo not drawn) [Cpd 184, methyl 2-cyano-2-[3-[4-(cyclopropylcarbamoyl)-3-(difluoromethoxy)-5-methoxy-phenyl]imidazo[1,2-a]pyridin-7-yl]propanoate]
> 500 nM	> 500 nM	> 500 nM	COc1cc(-c2cnc3cc(C4COCCN4C(=O)OC(C)(C)C)ccn23)cc(OC(F)F)c1C(=O)NC1CC1 (stereo not drawn) [Cpd 186, tert-butyl 3-[3-[4-(cyclopropylcarbamoyl)-3-(difluoromethoxy)-5-methoxy-phenyl]imidazo[1,2-a]pyridin-7-yl]morpholine-4-carboxylate]
10 to 100 nM	> 500 nM	> 500 nM	COc1cc(-c2cnc3cc(C4COCCN4)ccn23)cc(OC(F)F)c1C(=O)NC1CC1 (stereo not drawn) [Cpd 187, N-cyclopropyl-2-(difluoromethoxy)-6-methoxy-4-(7-morpholin-3-ylimidazo[1,2-a]pyridin-3-yl)benzamide]
100 to 500 nM	> 500 nM	> 500 nM	COc1cc(-c2cnc3cc(C(C)(O)Cn4cncn4)ccn23)cc(OC(F)F)c1C(=O)NC1CC1 (stereo not drawn) [Cpd 194, N-cyclopropyl-2-(difluoromethoxy)-4-[7-[1-hydroxy-1-methyl-2-(1,2,4-triazol-1-yl)ethyl]imidazo[1,2-a]pyridin-3-yl]-6-methoxy-benzamide]
